Results as given in ChEMBL document CHEMBL5532679, “Discovery and Characterization of RGH-122, a Potent, Selective, and Orally Bioavailable V1a Receptor Antagonist” (J Med Chem, 2024).

How the values were obtained:
[1] = biological target: Voltage-gated inwardly rectifying potassium channel KCNH2 (Homo sapiens, UniProt Q12809)
Description: Inhibition of hERG expressed in CHO cells at -80 mV holding potential incubated for 7 to 10 mins by automated patch clamp method

in vitro [2] = conditions: Wistar, rat, microsomes
[3] = Efflux ratio of apparent permeability across basolateral to apical side over apical to basolateral side in vinblastine treated human Caco-2 cells at 1 to 10 uM incubated for 15 to 60 hrs by HPLC analysis
[4] = Apparent permeability of compound across apical to basal side in vinblastine treated human Caco-2 cells at 1 to 10 uM incubated for 15 to 60 mins by HPLC analysis
Vasopressin V1a receptor [5] = biological target: T1, Vasopressin V1a receptor (Homo sapiens, UniProt P37288)
T1 sequence (P37288 whole entry): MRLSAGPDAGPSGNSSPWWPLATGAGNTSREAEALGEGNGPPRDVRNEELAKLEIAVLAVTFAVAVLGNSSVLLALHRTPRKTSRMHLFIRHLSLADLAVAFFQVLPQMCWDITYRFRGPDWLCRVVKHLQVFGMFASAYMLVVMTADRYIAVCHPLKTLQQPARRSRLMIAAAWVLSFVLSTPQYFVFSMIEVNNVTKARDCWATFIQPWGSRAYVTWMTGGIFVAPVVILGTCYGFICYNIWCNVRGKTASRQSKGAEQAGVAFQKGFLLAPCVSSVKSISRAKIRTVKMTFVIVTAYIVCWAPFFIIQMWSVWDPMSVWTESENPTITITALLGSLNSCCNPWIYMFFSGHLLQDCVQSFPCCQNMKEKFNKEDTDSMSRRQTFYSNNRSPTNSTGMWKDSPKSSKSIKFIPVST
Description: Antagonist activity at human V1A receptor expressed in human 1321N1 cells assessed as Ca2+ mobilization incubated for 15 mins by FLIPR calcium 5 assay

Vasopressin V1a receptor [6] = biological target: T1, Vasopressin V1a receptor; remark: listed apart in the source
Description: Displacement of [3H]vasopressin from human V1A receptor assessed as inhibition constant by Cheng-Prusoff equation analysis

in vitro [7] = conditions: human
in vitro [8] = conditions: NMRI, mouse, microsomes
animal or person [9] = conditions: Mus musculus, NMRI, po, read-out: INH
in vitro [10] = conditions: CD-1, mouse, liver microsomes
animal or person [11] = conditions: Mus musculus, NMRI, po, read-out: INH; remark: listed apart in the source

Voltage-gated inwardly rectifying potassium channel KCNH2, sequence (Q12809 whole entry): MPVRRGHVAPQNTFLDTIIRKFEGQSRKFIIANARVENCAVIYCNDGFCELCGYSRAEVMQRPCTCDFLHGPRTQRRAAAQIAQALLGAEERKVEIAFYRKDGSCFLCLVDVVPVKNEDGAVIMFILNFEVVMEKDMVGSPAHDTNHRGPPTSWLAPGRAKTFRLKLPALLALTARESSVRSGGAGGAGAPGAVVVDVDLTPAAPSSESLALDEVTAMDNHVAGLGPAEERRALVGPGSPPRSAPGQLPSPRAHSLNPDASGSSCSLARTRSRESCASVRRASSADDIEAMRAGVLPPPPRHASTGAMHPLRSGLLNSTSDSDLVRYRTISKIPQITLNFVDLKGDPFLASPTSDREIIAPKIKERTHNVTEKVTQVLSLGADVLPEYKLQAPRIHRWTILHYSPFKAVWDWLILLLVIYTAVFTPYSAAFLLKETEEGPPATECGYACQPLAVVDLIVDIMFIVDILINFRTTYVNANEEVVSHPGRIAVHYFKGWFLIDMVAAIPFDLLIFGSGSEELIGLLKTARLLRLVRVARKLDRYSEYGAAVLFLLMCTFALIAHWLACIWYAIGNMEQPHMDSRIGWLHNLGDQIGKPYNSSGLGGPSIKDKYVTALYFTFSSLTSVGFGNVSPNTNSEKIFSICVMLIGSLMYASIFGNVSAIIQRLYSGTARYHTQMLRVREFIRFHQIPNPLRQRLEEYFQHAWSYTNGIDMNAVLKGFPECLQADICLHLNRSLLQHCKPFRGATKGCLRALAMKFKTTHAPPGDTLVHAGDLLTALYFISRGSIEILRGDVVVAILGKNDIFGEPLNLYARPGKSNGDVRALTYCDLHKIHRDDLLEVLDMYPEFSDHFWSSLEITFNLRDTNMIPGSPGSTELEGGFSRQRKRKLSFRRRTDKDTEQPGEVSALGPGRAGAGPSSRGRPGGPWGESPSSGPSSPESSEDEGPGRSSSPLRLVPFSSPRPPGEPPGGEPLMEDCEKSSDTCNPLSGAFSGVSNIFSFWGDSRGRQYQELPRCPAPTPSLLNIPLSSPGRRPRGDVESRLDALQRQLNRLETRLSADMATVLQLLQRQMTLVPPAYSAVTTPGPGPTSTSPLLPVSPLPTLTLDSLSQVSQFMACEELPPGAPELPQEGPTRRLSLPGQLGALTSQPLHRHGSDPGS

SMILES	microsomal CLint at 1 µM (in vitro [2])	efflux ratio at 10 µM [3]	Papp A→B at 10 µM [4]	microsomal CLint at 1 µM (in vitro [7]; microsomes)	microsomal CLint at 1 µM (in vitro [8])	other results
OC[C@H]1Cc2cc(Cl)ccc2-n2c(nnc2[C@H]2CC[C@H](Oc3ccccn3)CC2)C1						IC50 [1]: 23000 nM
CN1CCN(CC2Cc3cc(Cl)ccc3-n3c(nnc3[C@H]3CC[C@H](Oc4ccccn4)CC3)C2)CC1 (stereo not given in full)	3 µL/min/mg	7.5	8.6 ×10⁻⁶ cm/s	11 µL/min/mg	6 µL/min/mg	IC50 (Vasopressin V1a receptor [5]): 7.1 nM; Ki (Vasopressin V1a receptor [6]): 0.8 nM
NC1CCc2cc(Cl)ccc2-n2c1nnc2[C@H]1CC[C@H](Oc2ccccn2)CC1 (stereo not given in full)						IC50 (Vasopressin V1a receptor [5]): 42 nM; Ki (Vasopressin V1a receptor [6]): 8 nM
CC(C)NC1Cc2cc(Br)ccc2-n2c(nnc2[C@H]2CC[C@H](Oc3ccccn3)CC2)C1 (stereo not given in full)						inhibition in vivo at 3 mg/kg (animal or person [9]): 64%
O=C(N[C@@H]1Cc2cc(Cl)ccc2-n2c(nnc2[C@H]2CC[C@H](Oc3ccccn3)CC2)C1)C(F)(F)F	4 µL/min/mg	2.9	11 ×10⁻⁶ cm/s	2 µL/min/mg		microsomal CLint at 1 µM (in vitro [10]): 18 µL/min/mg
NC1Cc2cc(Cl)ccc2-n2c(nnc2[C@H]2CC[C@H](Oc3ccccn3)CC2)C1 (mixture of isomers)	11 µL/min/mg	29	3 ×10⁻⁶ cm/s	2 µL/min/mg	14 µL/min/mg	
CC(C)(O)C(=O)N[C@@H]1Cc2cc(Cl)ccc2-n2c(nnc2[C@H]2CC[C@H](Oc3ccccn3)CC2)C1	3 µL/min/mg	37	1.8 ×10⁻⁶ cm/s	1 µL/min/mg		microsomal CLint at 1 µM (in vitro [10]): 16 µL/min/mg
CO[C@]1(C)CC[C@@H](c2nnc3n2-c2ccc(Cl)cc2CC2(C3)OCCO2)CC1	12 µL/min/mg	1	42 ×10⁻⁶ cm/s		16 µL/min/mg	IC50 [1]: > 30000 nM; inhibition in vivo at 3 mg/kg (animal or person [9]): 0%; inhibition in vivo at 10 mg/kg (animal or person [11]): 41%
O[C@H]1Cc2cc(Cl)ccc2-n2c(nnc2[C@H]2CC[C@H](Oc3ccccn3)CC2)C1	18 µL/min/mg		20 ×10⁻⁶ cm/s		7 µL/min/mg	IC50 [1]: > 30000 nM; inhibition in vivo at 3 mg/kg (animal or person [9]): 84%; inhibition in vivo at 10 mg/kg (animal or person [11]): 92%
N[C@H]1Cc2cc(Cl)ccc2-n2c(nnc2[C@H]2CC[C@H](Oc3ccccn3)CC2)C1	36 µL/min/mg	44	2.6 ×10⁻⁶ cm/s	4 µL/min/mg	11 µL/min/mg	
CN(C)CC(=O)NC1Cc2cc(Cl)ccc2-n2c(nnc2[C@H]2CC[C@H](Oc3ccccn3)CC2)C1 (mixture of isomers)	6 µL/min/mg			0.2 µL/min/mg	2 µL/min/mg	
CC(C)NC1Cc2cc(F)ccc2-n2c(nnc2[C@H]2CC[C@H](Oc3ccccn3)CC2)C1 (stereo not given in full)						inhibition in vivo at 3 mg/kg (animal or person [9]): 58%
CN(C)CCC(=O)N[C@@H]1Cc2cc(Cl)ccc2-n2c(nnc2[C@H]2CC[C@H](Oc3ccccn3)CC2)C1	29 µL/min/mg			15 µL/min/mg		microsomal CLint at 1 µM (in vitro [10]): 96 µL/min/mg
N#Cc1ccc2c(c1)CC1(Cc3nnc([C@H]4CC[C@H](Oc5ccccn5)CC4)n3-2)OCCO1						inhibition in vivo at 10 mg/kg (animal or person [11]): 69%
CNC1CCc2nnc([C@H]3CC[C@H](Oc4ccccn4)CC3)n2-c2ccc(Cl)cc21 (stereo not given in full)		6.8	9.3 ×10⁻⁶ cm/s			IC50 (Vasopressin V1a receptor [5]): 6.9 nM; Ki (Vasopressin V1a receptor [6]): 1.3 nM
CN(C)C1Cc2cc(Cl)ccc2-n2c(nnc2[C@H]2CC[C@H](Oc3ccccn3)CC2)C1 (stereo not given in full)	36 µL/min/mg	1.3	23 ×10⁻⁶ cm/s	34 µL/min/mg	37 µL/min/mg	
CN(C)CC1Cc2cc(Cl)ccc2-n2c(nnc2[C@H]2CC[C@H](Oc3ccccn3)CC2)C1 (stereo not given in full)	47 µL/min/mg			42 µL/min/mg	39 µL/min/mg	IC50 (Vasopressin V1a receptor [5]): 4.7 nM; Ki (Vasopressin V1a receptor [6]): 0.5 nM
O=C(N[C@@H]1Cc2cc(Cl)ccc2-n2c(nnc2[C@H]2CC[C@H](Oc3ccccn3)CC2)C1)C1CCC1	86 µL/min/mg			157 µL/min/mg		microsomal CLint at 1 µM (in vitro [10]): 91 µL/min/mg
c1ccc(O[C@H]2CC[C@H](c3nnc4n3-c3ccccc3CC3(C4)OCCO3)CC2)nc1						inhibition in vivo at 10 mg/kg (animal or person [11]): 49%
FC[C@H]1Cc2cc(Cl)ccc2-n2c(nnc2[C@H]2CC[C@H](Oc3ccccn3)CC2)C1						IC50 [1]: 13000 nM
CCN[C@@H]1Cc2cc(Cl)ccc2-n2c(nnc2[C@H]2CC[C@H](Oc3ccccn3)CC2)C1	15 µL/min/mg	1.4	24 ×10⁻⁶ cm/s	21 µL/min/mg	16 µL/min/mg	IC50 [1]: 3500 nM
Clc1ccc2c(c1)CC(CN1CCOCC1)Cc1nnc([C@H]3CC[C@H](Oc4ccccn4)CC3)n1-2 (stereo not given in full)	145 µL/min/mg			134 µL/min/mg	101 µL/min/mg	IC50 (Vasopressin V1a receptor [5]): 2.1 nM; Ki (Vasopressin V1a receptor [6]): 0.4 nM
NCC1Cc2cc(Cl)ccc2-n2c(nnc2[C@H]2CC[C@H](Oc3ccccn3)CC2)C1 (stereo not given in full)	25 µL/min/mg			48 µL/min/mg	35 µL/min/mg	IC50 (Vasopressin V1a receptor [5]): 15 nM; Ki (Vasopressin V1a receptor [6]): 3.1 nM
Clc1ccc2c(c1)CC1(Cc3nnc([C@H]4CC[C@H](Oc5ccccn5)CC4)n3-2)OCCCO1	15 µL/min/mg	0.8	7 ×10⁻⁶ cm/s		27 µL/min/mg	inhibition in vivo at 3 mg/kg (animal or person [9]): 69%; inhibition in vivo at 10 mg/kg (animal or person [11]): 79%

SMILES	microsomal CLint at 1 µM (in vitro [2])	efflux ratio at 10 µM [3]	Papp A→B at 10 µM [4]	microsomal CLint at 1 µM (in vitro [7]; microsomes)	microsomal CLint at 1 µM (in vitro [8])	other results
CC(C)NC1Cc2ccccc2-n2c(nnc2[C@H]2CC[C@H](Oc3ccccn3)CC2)C1 (stereo not given in full)						Ki (Vasopressin V1a receptor [6]): 5.6 nM; inhibition in vivo at 3 mg/kg (animal or person [9]): 18%
Fc1ccc2c(c1)CC1(Cc3nnc([C@H]4CC[C@H](Oc5ccccn5)CC4)n3-2)OCCO1						inhibition in vivo at 10 mg/kg (animal or person [11]): 49%
Brc1ccc2c(c1)CC1(Cc3nnc([C@H]4CC[C@H](Oc5ccccn5)CC4)n3-2)OCCO1						inhibition in vivo at 10 mg/kg (animal or person [11]): 99%
CC(C)N[C@H]1Cc2cc(Cl)ccc2-n2c(nnc2[C@H]2CC[C@H](Oc3ccccn3)CC2)C1						IC50 [1]: 3800 nM
CNC1Cc2cc(Cl)ccc2-n2c(nnc2[C@H]2CC[C@H](Oc3ccccn3)CC2)C1 (stereo not given in full)	19 µL/min/mg	1.8	40 ×10⁻⁶ cm/s	12 µL/min/mg	24 µL/min/mg	
Clc1ccc2c(c1)CCCc1nnc([C@H]3CC[C@H](Oc4ccccn4)CC3)n1-2						microsomal CLint at 1 µM (in vitro [7]; liver microsomes): 29 µL/min/mg; inhibition in vivo at 10 mg/kg (animal or person [11]): 42%
CC(C)(C)C(=O)N[C@@H]1Cc2cc(Cl)ccc2-n2c(nnc2[C@H]2CC[C@H](Oc3ccccn3)CC2)C1	77 µL/min/mg			49 µL/min/mg		microsomal CLint at 1 µM (in vitro [10]): 242 µL/min/mg
O[C@@H]1Cc2cc(Cl)ccc2-n2c(nnc2[C@H]2CC[C@H](Oc3ccccn3)CC2)C1	56 µL/min/mg	3.5	23 ×10⁻⁶ cm/s		5 µL/min/mg	IC50 [1]: > 30000 nM; inhibition in vivo at 3 mg/kg (animal or person [9]): 75%; inhibition in vivo at 10 mg/kg (animal or person [11]): 84%
Clc1ccc2c(c1)CC(CNC1CCOCC1)Cc1nnc([C@H]3CC[C@H](Oc4ccccn4)CC3)n1-2 (stereo not given in full)	8 µL/min/mg	7.1	8.1 ×10⁻⁶ cm/s	14 µL/min/mg	6 µL/min/mg	IC50 (Vasopressin V1a receptor [5]): 15 nM; Ki (Vasopressin V1a receptor [6]): 2.3 nM
CC(C)N[C@@H]1Cc2cc(Cl)ccc2-n2c(nnc2[C@H]2CC[C@H](Oc3ccccn3)CC2)C1						IC50 [1]: 4000 nM
CC(C)NCC1Cc2cc(Cl)ccc2-n2c(nnc2[C@H]2CC[C@H](Oc3ccccn3)CC2)C1 (stereo not given in full)	6 µL/min/mg			20 µL/min/mg	8 µL/min/mg	IC50 (Vasopressin V1a receptor [5]): 55 nM; Ki (Vasopressin V1a receptor [6]): 2.8 nM
N[C@@H]1Cc2cc(Cl)ccc2-n2c(nnc2[C@H]2CC[C@H](Oc3ccccn3)CC2)C1	7 µL/min/mg	35	2.8 ×10⁻⁶ cm/s	5 µL/min/mg	9 µL/min/mg	IC50 [1]: 16700 nM
O=C(N[C@@H]1Cc2cc(Cl)ccc2-n2c(nnc2[C@H]2CC[C@H](Oc3ccccn3)CC2)C1)C1CCC(F)(F)CC1	32 µL/min/mg			34 µL/min/mg		microsomal CLint at 1 µM (in vitro [10]): 154 µL/min/mg
FC(F)(F)c1ccc2c(c1)CC1(Cc3nnc([C@H]4CC[C@H](Oc5ccccn5)CC4)n3-2)OCCO1						inhibition in vivo at 10 mg/kg (animal or person [11]): 76%
O=C([C@H]1CC[C@H](c2nnc3n2-c2ccc(Cl)cc2CC2(C3)OCCO2)CC1)N1CCOCC1	3 µL/min/mg	29	1.3 ×10⁻⁶ cm/s		3 µL/min/mg	
OC[C@@H]1Cc2cc(Cl)ccc2-n2c(nnc2[C@H]2CC[C@H](Oc3ccccn3)CC2)C1						IC50 [1]: 19000 nM
Clc1ccc2c(c1)CC(NC1COC1)Cc1nnc([C@H]3CC[C@H](Oc4ccccn4)CC3)n1-2 (stereo not given in full)	17 µL/min/mg	4.4	24 ×10⁻⁶ cm/s	16 µL/min/mg	14 µL/min/mg	
Clc1ccc2c(c1)CC(NC1CCOCC1)Cc1nnc([C@H]3CC[C@H](Oc4ccccn4)CC3)n1-2 (stereo not given in full)	9 µL/min/mg	1.1	41 ×10⁻⁶ cm/s	24 µL/min/mg	15 µL/min/mg	
CC(C)NC1Cc2cc(C#N)ccc2-n2c(nnc2[C@H]2CC[C@H](Oc3ccccn3)CC2)C1 (stereo not given in full)						inhibition in vivo at 3 mg/kg (animal or person [9]): 56%
FC1(F)CCC(NC2Cc3cc(Cl)ccc3-n3c(nnc3[C@H]3CC[C@H](Oc4ccccn4)CC3)C2)CC1 (stereo not given in full)	26 µL/min/mg			26 µL/min/mg	37 µL/min/mg	
CC(C)NC1Cc2cc(Cl)ccc2-n2c(nnc2[C@H]2CC[C@H](Oc3ccccn3)CC2)C1 (mixture of isomers)						IC50 [1]: 3700 nM
FC[C@@H]1Cc2cc(Cl)ccc2-n2c(nnc2[C@H]2CC[C@H](Oc3ccccn3)CC2)C1						IC50 [1]: 12000 nM
OCC1Cc2cc(Cl)ccc2-n2c(nnc2[C@H]2CC[C@H](Oc3ccccn3)CC2)C1 (stereo not given in full)						IC50 [1]: 21400 nM
